“And” between values parts separate entries of the source, which are not always exact repeats. Equal values may be shown once.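 A five-concentration, 48-hour dose response in 96-well plates underlies each endpoint, interpolated linearly between surrounding concentrations. Abbreviation: GI50, concentration required for 50% inhibition of growth. Definition used: TGI = concentration required for complete inhibition of growth.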
What was measured:
Test in all cases: NCI-60 cell line screen, 48 h
RXF 393 renal = tested on: RXF 393 renal
SNB-19 CNS = tested on: SNB-19 CNS
OVCAR-4 ovarian = tested on: OVCAR-4 ovarian
SK-MEL-2 melanoma = tested on: SK-MEL-2 melanoma
M14 melanoma = tested on: M14 melanoma
NCI/ADR-RES ovarian = tested on: NCI/ADR-RES ovarian
ACHN renal = tested on: ACHN renal
A549 NSCLC = tested on: A549 NSCLC
OVCAR-3 ovarian = tested on: OVCAR-3 ovarian
SK-MEL-28 melanoma = tested on: SK-MEL-28 melanoma

Row | Compound | GI50 (RXF 393 renal) | TGI (RXF 393 renal) | GI50 (SNB-19 CNS) | TGI (SNB-19 CNS) | GI50 (OVCAR-4 ovarian) | TGI (OVCAR-4 ovarian) | GI50 (SK-MEL-2 melanoma) | TGI (SK-MEL-2 melanoma) | GI50 (M14 melanoma) | TGI (M14 melanoma) | GI50 (NCI/ADR-RES ovarian) | TGI (NCI/ADR-RES ovarian) | GI50 (ACHN renal) | TGI (ACHN renal) | GI50 (A549 NSCLC) | TGI (A549 NSCLC) | GI50 (OVCAR-3 ovarian) | TGI (OVCAR-3 ovarian) | GI50 (SK-MEL-28 melanoma) | TGI (SK-MEL-28 melanoma)
1 | O=C1c2cc3c(cc2[C@@H]2[C@H]1c1ccc([N+](=O)[O-])cc1C(=O)N2CCCCl)OCO3 | < 0.01 µM | 10.1 µM | < 0.0139 µM | > 100 µM | 0.151 µM | > 100 µM | 0.0827 µM | > 100 µM | < 0.01 µM | < 0.01 µM | < 0.01 µM | 0.548 µM | < 0.01 µM | < 0.01 µM | < 0.01 µM | > 100 µM | 0.073 µM | 0.456 µM | – | –
2 | Cc1ccc2c(Nc3cccc(Cl)c3F)ncc(NC(=O)c3csc4c(N)ncnc34)c2c1 | > 100 µM | > 100 µM | > 100 µM | > 100 µM | > 100 µM | > 100 µM | 0.0856 µM | > 100 µM | 0.0351 µM | 0.608 µM | > 100 µM | > 100 µM | > 100 µM | > 100 µM | > 73.5 µM | > 100 µM | > 100 µM | > 100 µM | – | –
3 | CCC[CH2][Ge]([CH2]CCC)([CH2]CCC)[O]C(=O)C(O)c1ccccc1 (centres undefined) | – | 1.06 µM | 18.5 µM | > 63.7 µM | 0.794 µM | 29 µM | – | – | 2.51 µM | 12 µM | – | – | 4.23 µM | 19.8 µM | 2 µM | 26 µM | 1.35 µM | 18.4 µM | 12.7 µM | 29.8 µM
4 | CC(=O)Nc1ccccc1-c1cnc2ccccc2n1 | – | – | – | > 100 µM | – | > 100 µM | – | – | – | > 100 µM | – | – | – | > 100 µM | – | > 100 µM | – | > 100 µM | – | > 100 µM
5 | O=C(/C=C/c1ccccc1O)c1cccnc1 | – | > 100 µM | – | > 100 µM | – | > 100 µM | – | > 100 µM | – | > 100 µM | – | – | – | > 100 µM | – | > 100 µM | – | > 100 µM | – | > 100 µM
6 | COc1cc2ccnc(-c3c4ccccc4c(N)c4c(OC)c(OC)ccc34)c2cc1OC | – | 6.87 µM | – | 15.4 µM | – | 11.7 µM | – | 16.6 µM | – | – | – | – | – | 14 µM | – | 17.3 µM | – | – | – | 6.92 µM
7 | C[C@]12CCC3c4ccc(O)cc4CCC3C1Cc1ccc(O)cc12 (some centres undefined) | – | – | 10.6 µM | 22.7 µM | 15.3 µM | 92.7 µM | 11 µM | 26.3 µM | 3.8 µM | 13.6 µM | 2.35 µM | 6.74 µM | 10.4 µM | 22.3 µM | 13 µM | 38.4 µM | 5.71 µM | 26.5 µM | 8.72 µM | 22.7 µM
8 | COc1cc2c(c(OC)c1OC)-c1ccc(SC)c(=O)cc1[C@@H](NCc1cccc(C#N)c1)CC2 | – | – | < 0.0075 µM | > 75 µM | – | > 75 µM | < 0.0075 µM | < 0.0075 µM | < 0.0075 µM | – | – | – | 0.0134 µM | > 75 µM | < 0.0075 µM | > 75 µM | – | 0.0493 µM | – | –
9 | CC(=O)OCC1OC(n2c(=O)n(-c3ccccc3)c(=O)c3cc(Br)cc(Br)c32)C(OC(C)=O)C(OC(C)=O)C1OC(C)=O (centres undefined) | – | > 100 µM | – | > 100 µM | – | 61.5 µM | – | > 100 µM | – | > 100 µM | – | – | – | > 100 µM | – | > 100 µM | – | > 100 µM | – | > 100 µM
10 | CC1=CC2=C(C(N)=O)C(=O)OC2(C)C(c2ccccc2)C1 (centres undefined) | – | – | – | > 100 µM | – | > 100 µM | – | > 100 µM | – | > 100 µM | – | > 100 µM | – | > 100 µM | – | > 100 µM | – | > 100 µM | – | > 100 µM
11 | N#Cc1cccc(/C=C(/C(=O)c2ccccc2)c2ccccc2)c1 | 3.72 µM | 10.8 µM | 5.07 µM | 19.9 µM | 6.35 µM | 20.3 µM | – | – | 4.05 µM | 20.8 µM | 3.62 µM | > 100 µM | 2.47 µM | 5.76 µM | 10.8 µM | 47.6 µM | 3.63 µM | 11.8 µM | 5.35 µM | 19.1 µM
12 | Cc1nc(-c2nc(C)c(C(=O)NN(C)C)s2)sc1C(=O)NN(C)C | – | – | – | > 100 µM | – | > 100 µM | – | > 100 µM | – | > 100 µM | – | – | – | > 100 µM | – | – | – | > 100 µM | – | > 100 µM
13 | Cc1ccccc1-c1c(N)nc(N)nc1C(=O)Nc1nccs1 | – | > 100 µM | – | > 100 µM | – | > 100 µM | – | > 100 µM | – | > 100 µM | – | – | – | > 100 µM | – | > 100 µM | – | > 100 µM | – | > 100 µM
14 | CCC1(C(=O)OC)CCc2c(OC)ccc(OC)c2C1=O (centres undefined) | – | – | – | > 100 µM | – | > 100 µM | – | > 100 µM | – | > 100 µM | – | – | – | > 100 µM | – | > 100 µM | – | > 100 µM | – | > 100 µM
15 | CC(=O)C1C(=O)C(=O)N(c2ccccc2N2C(=O)C(=O)C(C(C)=O)C2=O)C1=O (centres undefined) | – | > 100 µM | – | > 100 µM | – | > 100 µM | – | > 100 µM | – | > 100 µM | – | – | – | > 100 µM | – | > 100 µM | – | > 100 µM | – | > 100 µM
16 | Nc1ncnc2c(C3OC(CO)C(O)C3O)scc12 (centres undefined) | – | 1.39 µM | 4.92 µM | 65.6 µM | – | 2.24 µM and 0.746 µM | 0.228 µM | 2.14 µM | – | 0.217 µM and 0.277 µM | – | – | 0.127 µM | 1.9 µM and 3.66 µM | – | 1.46 µM and 5.46 µM | – | 0.0287 µM | 1.2 µM | 2.64 µM and 7.04 µM
17 | O=C(CC(=O)Nc1ccccc1O)Nc1ccccc1O | – | – | – | > 100 µM | – | > 100 µM | – | – | – | 29.7 µM | – | – | – | 22.4 µM | – | 95.1 µM | – | 46 µM | – | 27.4 µM
18 | COc1cc(/C=C/c2ccc(OC(C)=O)cc2)cc(OC)c1OC | – | 39.2 µM | – | > 100 µM | – | > 100 µM | – | – | – | > 100 µM | – | – | – | 78.6 µM | – | 85.2 µM | – | 68.2 µM | – | > 100 µM
19 | CC(=O)OC1C/C(C)=C/CCC(C)/C=C/C2(C)CCC(C(C)(C)O)C12 (centres undefined) | – | 53.3 µM | – | > 100 µM | – | > 100 µM | – | > 100 µM | – | > 100 µM | – | – | – | > 100 µM | – | > 100 µM | – | > 100 µM | – | > 100 µM
